In ChEMBL document CHEMBL1201862, “PubChem BioAssay data set” (2004):
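All cell lines were grown in 96-well plates and treated with compound for 48 hours. Here, GI50 denotes the concentration required for 50% inhibition of growth.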 The source made the active and inactive calls. No stated cut-off is given here; in the data, active = GI50 up to about 1.1 µM and inactive = higher.

What was measured:
Assay in all cases: NCI-60 cell line screen, 48 h
[1] = tested on: A498
[2] = tested on: A549
[3] = tested on: CCRF-CEM
[4] = tested on: DU-145
[5] = tested on: HOP-62
[6] = tested on: Hs-578T
[7] = tested on: IGROV-1
[8] = tested on: MDA-MB-231
[9] = tested on: MDA-MB-435
[10] = tested on: MDA-N
[11] = tested on: NCI-H522
[12] = tested on: NCI/ADR-RES
[13] = tested on: OVCAR-4
[14] = tested on: OVCAR-8
[15] = tested on: SF-268
[16] = tested on: SK-OV-3
[17] = tested on: SNB-19
[18] = tested on: UACC-257
[19] = tested on: UACC-62
[20] = tested on: BT-549

| Compound | GI50 [1] | GI50 [2] | GI50 [3] | GI50 [4] | GI50 [5] | GI50 [6] | GI50 [7] | GI50 [8] | GI50 [9] | GI50 [10] | GI50 [11] | GI50 [12] | GI50 [13] | GI50 [14] | GI50 [15] | GI50 [16] | GI50 [17] | GI50 [18] | GI50 [19] | GI50 [20] |
| --- | --- | --- | --- | --- | --- | --- | --- | --- | --- | --- | --- | --- | --- | --- | --- | --- | --- | --- | --- | --- |
| COc1ccc(C2OC(c3ccncc3)=NN2C)cc1OC (stereo not given) | 33.5 µM (inactive) | > 100 µM (inactive) | > 100 µM (inactive) | > 100 µM (inactive) | 94.6 µM (inactive) | 67 µM (inactive) | > 100 µM (inactive) | 67.6 µM (inactive) | > 100 µM (inactive) | > 100 µM (inactive) | > 100 µM (inactive) | > 100 µM (inactive) | > 100 µM (inactive) | > 100 µM (inactive) | > 100 µM (inactive) | > 100 µM (inactive) | > 100 µM (inactive) | > 100 µM (inactive) | > 100 µM (inactive) | – |
| c1ccc(CSc2nc(N3CCOCC3)c3cn[nH]c3n2)cc1 | 5.71 µM (inactive) | 22.8 µM (inactive) | 0.0438 µM (active) | 26.2 µM (inactive) | 27 µM (inactive) | 13.2 µM (inactive) | 10.2 µM (inactive) | 17 µM (inactive) | 17.5 µM (inactive) | – | 15.6 µM (inactive) | 15.2 µM (inactive) | 40.7 µM (inactive) | 18.4 µM (inactive) | 20.4 µM (inactive) | 25 µM (inactive) | 24.7 µM (inactive) | 15 µM (inactive) | 11.4 µM (inactive) | 11.7 µM (inactive) |
| N#Cc1c(Cl)cccc1Oc1ccc(S(=O)(=O)/N=C(\NN)Nc2ccc(Cl)cc2)cc1 | 32.4 µM (inactive) | 31.9 µM (inactive) | – | 25.5 µM (inactive) | 21.1 µM (inactive) | – | 20.1 µM (inactive) | 27.4 µM (inactive) | – | 25.5 µM (inactive) | – | 32.9 µM (inactive) | 26.4 µM (inactive) | 31.2 µM (inactive) | 22.8 µM (inactive) | 32.3 µM (inactive) | 41.1 µM (inactive) | 29.9 µM (inactive) | 19.1 µM (inactive) | 25.1 µM (inactive) |
| C=C(C)[C@@H]1C[C@H]2O[C@](O)(C(=C)CC(=O)/C=C(/C)C[C@@H]3OC(=O)[C@]24O[C@@H]34)[C@H]1O | > 100 µM (inactive) | > 100 µM (inactive) | > 100 µM (inactive) | > 100 µM (inactive) | > 100 µM (inactive) | – | > 100 µM (inactive) | > 100 µM (inactive) | > 100 µM (inactive) | > 100 µM (inactive) | > 100 µM (inactive) | > 100 µM (inactive) | > 100 µM (inactive) | > 100 µM (inactive) | > 100 µM (inactive) | > 100 µM (inactive) | > 100 µM (inactive) | > 100 µM (inactive) | > 100 µM (inactive) | > 100 µM (inactive) |
| CCOC(=O)C(=CNc1ccc(N(C2=NCC(C)S2)c2ccc(F)c(Cl)c2)cc1)C(=O)OCC (stereo not given) | 21.9 µM (inactive) | 27 µM (inactive) | 7.93 µM (inactive) | 17.6 µM (inactive) | 21.1 µM (inactive) | 22.8 µM (inactive) | 20.5 µM (inactive) | 14.5 µM (inactive) | 24.1 µM (inactive) | 21.2 µM (inactive) | 15.7 µM (inactive) | 17.1 µM (inactive) | 24.8 µM (inactive) | 18.8 µM (inactive) | 22.9 µM (inactive) | 21.9 µM (inactive) | 21.8 µM (inactive) | 17.1 µM (inactive) | – | – |
| COc1ccccc1/C=C1\S/C(=N/Nc2nc(C)c(C(C)=O)s2)NC1=O | 22.8 µM (inactive) | 44.8 µM (inactive) | 43.4 µM (inactive) | 69.7 µM (inactive) | 81.1 µM (inactive) | 25.4 µM (inactive) | – | 22.8 µM (inactive) | 32.6 µM (inactive) | 29.9 µM (inactive) | – | 43.8 µM (inactive) | > 100 µM (inactive) | 33.3 µM (inactive) | 22.8 µM (inactive) | 74.1 µM (inactive) | 51.2 µM (inactive) | 49.8 µM (inactive) | 36.4 µM (inactive) | – |
| FC1C2=C(SC1(F)F)C1CCC2C1 (stereo not given) | – | > 100 µM (inactive) | – | > 100 µM (inactive) | – | > 100 µM (inactive) | > 100 µM (inactive) | > 100 µM (inactive) | > 100 µM (inactive) | – | > 100 µM (inactive) | > 100 µM (inactive) | > 100 µM (inactive) | > 100 µM (inactive) | – | > 100 µM (inactive) | > 100 µM (inactive) | > 100 µM (inactive) | > 100 µM (inactive) | > 100 µM (inactive) |
| CC(C)OC1=C(CC2(C)OCCO2)C(=O)C12OCCO2 | > 100 µM (inactive) | > 100 µM (inactive) | > 100 µM (inactive) | > 100 µM (inactive) | > 100 µM (inactive) | > 100 µM (inactive) | > 100 µM (inactive) | > 100 µM (inactive) | > 100 µM (inactive) | – | 40.4 µM (inactive) | > 100 µM (inactive) | > 100 µM (inactive) | > 100 µM (inactive) | > 100 µM (inactive) | > 100 µM (inactive) | > 100 µM (inactive) | > 100 µM (inactive) | > 100 µM (inactive) | > 100 µM (inactive) |
| NC(=O)C(=O)n1ncc(Cl)c(Cl)c1=O | > 72.9 µM (inactive) | > 67.8 µM (inactive) | 6.03 µM (inactive) | > 100 µM (inactive) | > 100 µM (inactive) | > 100 µM (inactive) | > 56.6 µM (inactive) | > 10 µM (inactive) | > 100 µM (inactive) | > 100 µM (inactive) | 7.73 µM (inactive) | 24.4 µM (inactive) | 29.4 µM (inactive) | 24.2 µM (inactive) | 46 µM (inactive) | > 100 µM (inactive) | > 79.3 µM (inactive) | 34 µM (inactive) | 31.5 µM (inactive) | – |
| CS(=O)(=O)OCCN(CCOS(C)(=O)=O)c1ccc(/C=N/c2cccc(Cl)c2)cc1 | 5.38 µM (inactive) | 2.64 µM (inactive) | 1.82 µM (inactive) | 1.27 µM (inactive) | 7.23 µM (inactive) | 26 µM (inactive) | 15.5 µM (inactive) | 11.5 µM (inactive) | 12.2 µM (inactive) | – | 0.724 µM (active) | 3.61 µM (inactive) | 13.5 µM (inactive) | 10 µM (inactive) | 7.55 µM (inactive) | 0.561 µM (active) | 5.46 µM (inactive) | 2.84 µM (inactive) | 1.5 µM (inactive) | 9.98 µM (inactive) |
| CCC(C)N1CN(c2ccccc2)C2(CCN(CC3COc4ccccc4O3)CC2)C1=O (stereo not given) | – | 28.7 µM (inactive) | 19.9 µM (inactive) | 21.6 µM (inactive) | 19.4 µM (inactive) | – | 42.2 µM (inactive) | > 100 µM (inactive) | 19.2 µM (inactive) | 25.6 µM (inactive) | 22.8 µM (inactive) | 17.8 µM (inactive) | – | 26.2 µM (inactive) | 48 µM (inactive) | 33.6 µM (inactive) | 23.7 µM (inactive) | 23.9 µM (inactive) | 19 µM (inactive) | 14.3 µM (inactive) |
| CC1(C)OC[C@@H]([C@H](C=O)OCc2ccccc2)O1 | > 100 µM (inactive) | > 100 µM (inactive) | > 100 µM (inactive) | > 100 µM (inactive) | > 100 µM (inactive) | > 100 µM (inactive) | > 100 µM (inactive) | > 100 µM (inactive) | > 100 µM (inactive) | > 100 µM (inactive) | – | > 100 µM (inactive) | > 100 µM (inactive) | > 100 µM (inactive) | > 100 µM (inactive) | > 100 µM (inactive) | > 100 µM (inactive) | > 100 µM (inactive) | > 100 µM (inactive) | – |
| CC(=O)N(CCCCNC(=O)C(F)(F)F)CCCNC(=O)C(F)(F)F | > 100 µM (inactive) | > 100 µM (inactive) | > 100 µM (inactive) | > 100 µM (inactive) | > 100 µM (inactive) | > 100 µM (inactive) | > 100 µM (inactive) | > 100 µM (inactive) | > 100 µM (inactive) | – | > 100 µM (inactive) | > 100 µM (inactive) | > 100 µM (inactive) | > 100 µM (inactive) | > 100 µM (inactive) | > 100 µM (inactive) | > 100 µM (inactive) | > 100 µM (inactive) | > 100 µM (inactive) | > 100 µM (inactive) |
| COc1cc2nn(-c3ccccc3)nc2c2nonc12 | > 100 µM (inactive) | > 100 µM (inactive) | > 100 µM (inactive) | > 100 µM (inactive) | > 100 µM (inactive) | 77.3 µM (inactive) | > 100 µM (inactive) | > 100 µM (inactive) | > 100 µM (inactive) | > 100 µM (inactive) | > 100 µM (inactive) | > 100 µM (inactive) | 95.9 µM (inactive) | – | > 100 µM (inactive) | > 100 µM (inactive) | > 100 µM (inactive) | > 100 µM (inactive) | > 100 µM (inactive) | – |
| Cc1c2ccccc2c(C2C3C(=O)N(c4ccc(Br)cc4)C(=O)C3ON2C(C(N)=O)c2ccccc2)c2ccccc12 (stereo not given) | 2.98 µM (inactive) | 3.64 µM (inactive) | 3.18 µM (inactive) | 6.43 µM (inactive) | 8.99 µM (inactive) | – | 3.4 µM (inactive) | – | 3.13 µM (inactive) | 4.86 µM (inactive) | 2.79 µM (inactive) | 4.39 µM (inactive) | 4.94 µM (inactive) | 6.78 µM (inactive) | 9.14 µM (inactive) | 11.7 µM (inactive) | 4.8 µM (inactive) | 7.08 µM (inactive) | 9.35 µM (inactive) | 7.29 µM (inactive) |
